Experimental data as given in patent US9096591B2, “Tetracyclic compounds” (Medivation Technologies, Inc., priority 2007, dated 2015).
Several values for one entry are separate records, joined by “and”; a condition that tells them apart may be missing. Equal entries are not always repeated.

Tests used:
[1] = target: T1, human recombinant dopamine D2L receptor (Homo sapiens, UniProt P14416); assay: Dopamine D2L antagonist activity ([35S]GTPγS binding, SPA); assay type: biochemical
T1 construct: expressed in transfected cells; host or cells: CHO cells
Procedure: To determine for agonist or antagonist activity of compounds of the invention in functional assays, human recombinant dopamine D2L receptor stably expressed in Chinese hamster ovary (CHO) cells (Senogles S E et al. J Biol Chem. 265(8): 4507, 1990) was used. Compounds of invention were pre-incubated with the membranes (0.1 mg/ml) and […] in modified HEPES buffer (20 mM HEPES, pH 7.4, 100 mM NaCl, 10 mM MgCl2, 1 mM DTT, 1 mM EDTA) for 20 minutes and Scintillation Proximity Assay (SPA) beads were added for another 60 minutes at 30° C. The reaction was initiated by 0.3 nM [^35S]GTPγS for an additional 15 minute incubation period. […] Compounds were screened at 3 μM or lower, using 0.4% DMSO as vehicle. Assay results are presented as the percent response of specific binding in Table 8.

[2] = target: human recombinant dopamine D2S receptor (Homo sapiens, UniProt P14416); assay: Dopamine D2S antagonist activity ([35S]GTPγS binding, SPA); assay type: biochemical
Procedure: To determine for agonist or antagonist activity of compounds of the invention in functional assays, human recombinant dopamine D2S receptor stably expressed in Chinese hamster ovary (CHO) cells (Gilliland S L and Alper R H. Naunyn-Schmiedeberg's Archives of Pharmacology. 361: 498, 2000) was used. Compounds of invention were pre-incubated with the membranes (0.05 mg/ml) and 3 μM GDP in modified HEPES buffer (20 mM HEPES, pH 7.4, 100 mM NaCl, 10 mM MgCl2, 1 mM DTT, 1 mM EDTA) for 20 minutes and Scintillation Proximity Assay (SPA) beads were then added for another 60 minutes at 30° C. The reaction was initiated by 0.3 nM [^35S]GTPγS for an additional 30 minute incubation period. […] Compounds were screened at 3 μM or lower, using 0.4% DMSO as vehicle. Assay results are presented as the percent response of specific binding in Table 9.

[3] = target: T2, human recombinant serotonin 5-HT2A receptor (Homo sapiens, UniProt P28223); assay: Serotonin 5-HT2A agonist/antagonist functional assay (calcium fluorescence, HEK-293); assay type: cell-based; conditions: antagonist mode
T2 construct: expressed in transfected cells; host or cells: HEK-293 cells
Description: To determine for agonist or antagonist activity of compounds of the invention in functional assays, human recombinant serotonin 5-HT2A receptor expressed in human embryonic kidney (HEK-293) cells (Jerman J C, Brough S J, Gager T, Wood M, Coldwell M C, Smart D and Middlemiss D N. Eur J Pharmacol, 414: 23-30, 2001) was used. Cells were suspended in DMEM buffer, and distributed in microplates. A cytoplasmic calcium fluorescent indicator which varies proportionally to the free cytosolic Ca^2+ ion concentration was mixed with probenicid in HBSS buffer complemented with 20 mM Hepes (pH 7.4), added into each well and equilibrated with the cells for 30 min at 37° C. followed by 30 min at 22° C. […]
The standard reference antagonist was ketanserin, which was tested in each experiment at several concentrations to generate a concentration-response curve from which its IC50 value was calculated.

[4] = 0.3 uM, two values = assay run twice, read-out: Antagonist Activity As Measured by % Inhibition D2L
[5] = two values = assay run twice, read-out: Antagonist Activity As Measured by % Inhibition D2S
[6] = 0.03 uM, two values = assay run twice

T1 sequence (P14416 whole entry): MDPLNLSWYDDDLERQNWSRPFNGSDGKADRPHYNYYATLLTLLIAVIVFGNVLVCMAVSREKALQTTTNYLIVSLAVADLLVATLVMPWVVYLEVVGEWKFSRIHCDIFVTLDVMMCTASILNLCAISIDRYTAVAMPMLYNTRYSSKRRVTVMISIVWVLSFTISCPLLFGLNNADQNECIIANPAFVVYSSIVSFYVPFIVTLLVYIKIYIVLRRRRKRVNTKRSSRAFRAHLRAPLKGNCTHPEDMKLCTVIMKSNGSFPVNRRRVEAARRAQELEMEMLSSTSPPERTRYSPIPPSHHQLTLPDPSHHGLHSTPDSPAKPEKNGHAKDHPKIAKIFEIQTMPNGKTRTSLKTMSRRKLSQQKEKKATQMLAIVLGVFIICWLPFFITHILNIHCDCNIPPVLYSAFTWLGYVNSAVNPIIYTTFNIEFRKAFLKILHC
Chain of human recombinant dopamine D2S receptor (P14416 1-414 isoform P14416-2): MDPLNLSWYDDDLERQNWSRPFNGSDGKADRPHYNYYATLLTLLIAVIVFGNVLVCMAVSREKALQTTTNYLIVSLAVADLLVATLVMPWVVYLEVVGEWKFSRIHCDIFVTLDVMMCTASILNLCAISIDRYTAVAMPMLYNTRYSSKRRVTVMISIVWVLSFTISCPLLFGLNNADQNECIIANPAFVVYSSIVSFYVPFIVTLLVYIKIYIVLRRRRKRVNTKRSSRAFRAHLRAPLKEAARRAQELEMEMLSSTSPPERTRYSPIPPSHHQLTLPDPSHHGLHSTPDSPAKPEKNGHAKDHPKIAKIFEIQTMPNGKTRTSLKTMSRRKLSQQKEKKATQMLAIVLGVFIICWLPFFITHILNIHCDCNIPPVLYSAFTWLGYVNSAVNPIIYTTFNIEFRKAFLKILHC
T2 sequence (P28223 whole entry): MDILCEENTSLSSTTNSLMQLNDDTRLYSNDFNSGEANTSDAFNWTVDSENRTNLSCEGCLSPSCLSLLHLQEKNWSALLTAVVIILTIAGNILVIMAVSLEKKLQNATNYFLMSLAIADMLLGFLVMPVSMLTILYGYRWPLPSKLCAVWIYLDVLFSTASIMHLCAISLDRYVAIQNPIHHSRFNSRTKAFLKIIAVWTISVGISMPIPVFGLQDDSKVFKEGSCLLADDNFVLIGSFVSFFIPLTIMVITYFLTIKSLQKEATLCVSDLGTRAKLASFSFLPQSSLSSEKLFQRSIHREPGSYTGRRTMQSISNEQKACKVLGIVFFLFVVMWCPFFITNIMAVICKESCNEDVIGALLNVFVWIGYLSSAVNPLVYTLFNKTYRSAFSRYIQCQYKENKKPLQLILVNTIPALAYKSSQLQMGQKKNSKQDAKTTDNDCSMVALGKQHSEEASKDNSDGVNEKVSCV

Cc1ccc2c(c1)c1c(n2CCc2ccc(C(F)(F)F)nc2)CCN(C)C1 [Compound 68]
inhibition at 0.3 µM [1, 4]: 8% | inhibition at 1 µM ([1]; 1 uM, read-out: Antagonist Activity As Measured by % Inhibition D2L): 27% | inhibition at 3 µM ([1]; 3 uM, read-out: Antagonist Activity As Measured by % Inhibition D2L): 54% | inhibition at 0.3 µM [2, 5]: 42% | inhibition at 1 µM ([2]; 1 uM, read-out: Antagonist Activity As Measured by % Inhibition D2S): 70% | inhibition at 3 µM ([2]; 3 uM, read-out: Antagonist Activity As Measured by % Inhibition D2S): 93%

CN1CCc2c(c3cc(F)ccc3n2CCc2ccc(F)cc2)C1 [Compound 253]
Antagonist Activity As Measured by % Inhibition D2L [1, 6]: 56% | inhibition at 0.03 µM ([1]; 0.03 uM, two values = assay run twice, read-out: Antagonist Activity As Measured by % Inhibition D2L): 36% | Antagonist Activity As Measured by % Inhibition D2L ([1]; 0.1 uM, two values = assay run twice): 77% | inhibition at 0.1 µM ([1]; 0.1 uM, two values = assay run twice, read-out: Antagonist Activity As Measured by % Inhibition D2L): 57% | Antagonist Activity As Measured by % Inhibition D2L ([1]; 0.3 uM, two values = assay run twice): 89% | inhibition at 0.3 µM [1, 4]: 81% | Antagonist Activity As Measured by % Inhibition D2S [2, 6]: 104% and 80% | inhibition at 0.1 µM ([2]; 0.1 uM, two values = assay run twice, read-out: Antagonist Activity As Measured by % Inhibition D2S): 94% | inhibition at 0.3 µM [2, 5]: 96% | % of Control Agonist Response, 1st Assay ([3]; test concentration 1.00E−06 M): 0% | % of Control Agonist Response, 2nd Assay ([3]; test concentration 1.00E−06 M): 3% | % of Control Agonist Response, Mean ([3]; test concentration 1.00E−06 M): 1.5% | % of Control Agonist Response, 1st Assay ([3]; test concentration 1.00E−07 M): 94% | % of Control Agonist Response, 2nd Assay ([3]; test concentration 1.00E−07 M): 95% | % of Control Agonist Response, Mean ([3]; test concentration 1.00E−07 M): 94.3% | % of Control Agonist Response, 1st Assay ([3]; test concentration 3.00E−06 M): −3% | % of Control Agonist Response, 2nd Assay ([3]; test concentration 3.00E−06 M): −3% | % of Control Agonist Response, Mean ([3]; test concentration 3.00E−06 M): −2.6% | % of Control Agonist Response, 1st Assay ([3]; test concentration 3.00E−07 M): 36% | % of Control Agonist Response, 2nd Assay ([3]; test concentration 3.00E−07 M): 80% | % of Control Agonist Response, Mean ([3]; test concentration 3.00E−07 M): 57.9% | % of Control Agonist Response, 1st Assay ([3]; test concentration 3.00E−08 M): 114% | % of Control Agonist Response, 2nd Assay ([3]; test concentration 3.00E−08 M): 119% | % of Control Agonist Response, Mean ([3]; test concentration 3.00E−08 M): 116.5%
